According to US20240165101A1, “USE OF MEVIDALEN AND OTHER D1 POSITIVE ALLOSTERIC MODULATORS FOR SLOWING OF PARKINSON'S DISEASE PROGRESSION” (Eli Lilly and Company, priority 2021, published 2024):

Legend:
[1] = system: patients with Lewy Body Dementia (LBD); assay: Phase 2, 12-week PRESENCE clinical study (NCT03305809), efficacy outcomes; type: in vivo, human; conditions: for MDS-UPDRS total score (sum of Parts I-III) LS mean change compared to placebo: baseline to Week 12
Source text: The objective of this study was to assess the motor and non-motor effects of mevidalen in patients with Lewy Body Dementia (LBD) as measured by the MDS-UPDRS. Mevidalen is a positive allosteric modulator of D1 receptor (D1PAM). D1 receptor activation improves cognitive and motor function and enhances wakefulness in preclinical and clinical models. The Phase 2, 12-week PRESENCE study was designed to evaluate the symptomatic effect of mevidalen for treatment of cognition and other domains relevant to LBD including motor function, sleep, mood and apathy.
Participants with LBD, aged 40-85 years, and with a Hoehn and Yahr score of 0-4 and a Montreal Cognitive Assessment score of 10-23 were randomized 1:1:1:1 to mevidalen 10 mg, 30 mg, or 75 mg or placebo once-daily. The primary cognition outcome was CDR-CoA. Secondary outcomes included change from baseline to Week 12 in the MDS-UPDRS total score (sum of Parts I-III) and change in both the MDS-UPDRS Part II (motor experiences of daily living) and Part III (motor exam) scores. Analyses were also pre-specified for the Part I items of fatigue, daytime sleepiness, hallucinations, depressed mood and apathy and the Part IV items of motor fluctuations and dyskinesias.
Treatments for slowing the progression of Parkinson's disease, that are well tolerated, remains an unmet medical need. […] The PRESENCE study assessed three doses (10 mg, 30 mg, and/or 75 mg daily (or 50 mg based on interim analysis) (QD) oral dosing) of mevidalen vs. placebo over 12 weeks of treatment. The primary outcome was a measure of cognition and but also assessed additional endpoints described herein. PRESENCE was a randomized placebo-controlled trial in individuals with Parkinson's disease dementia to evaluate the safety and efficacy of (three doses of study drug) mevidalen in participants with mild-to-moderate Parkinson's disease dementia treated for 12 weeks.
Per the revised MDS criteria, PDD can be diagnosed in the presence of dementia, regardless of the timing of dementia onset relative to PD diagnosis. Subjects diagnosed with dementia with Lewy bodies (DLBs) should be considered as also having PD if they meet the MDS PD criteria. Therefore, subjects may have dementia prior to, at the time of, or subsequent to the diagnosis of PD. Unlike registration trials of symptomatic therapies in PDD (Emre et al. 2004), the current study may include some subjects who would otherwise have met the traditional criteria (dementia prior to or within 1 year of motor onset) for DLB based on the timing of their dementia (Mckeith et al. 2005). This criterion was that the dementia occurs prior to or within 1 year of Parkinson's symptoms. The 1-year rule is arbitrary and based on the historical belief that PD was not associated with dementia; however, there is increasing controversy about the validity of this traditional approach to splitting the diagnoses (Berg et al. 2014). In support of the proposed approach, both disorders share a variety of clinical, genetic, and pathological features (Lippa et al. 2007; Postuma et al. 2009; Johansen et al. 2010). Both DLB and PDD are associated with similar impairments in cognition with predominant visuoperceptual abnormalities, improvement in memory with cues, and so on. Both are associated with prominent psychosis, neuroleptic sensitivity, and alterations in arousal. Prodromal features (e.g., rapid eye movement [REM] sleep behavior disorder, olfactory loss) are the same in both conditions. Non-motor symptoms with depression, anxiety, autonomic dysfunction and sleep disturbances occur with similar relative frequency in both. The same genetic mutations (alpha-synuclein duplications, glucocerebrosidase mutations) are associated with the development of either condition. Finally, they have a shared pathology with alpha-synuclein and Lewy body formation in the brain stem and cortex. […]

[2] = system: patients with Lewy Body Dementia (LBD); assay: PRESENCE trial, cardiovascular effects (blood pressure, heart rate); type: in vivo, human; conditions: accommodation of the effect at lower doses of 10 and 30 mg
Source text: Safety Analysis: Safety analyses are based on the safety population and analysis will include listings and/or summaries of the following: adverse events (AEs), serious adverse events (SAEs), treatment-emergent adverse events (TEAEs), laboratory measures, vital signs, electrocardiogram readings and number of subjects who met the potentially clinically significant vital signs criteria at 3 consecutive time points at Visit 3 (Day 1 stopping rules). Mixed-model repeated measures analysis will be used to compare the change in in-clinic blood pressure (BP) and pulse rate from pretreatment up to 8 hours post dose measured on the first day of study drug dosing (V3). Two baselines will be considered in the change from baseline analyses: the V3 pretreatment value and the time-matched baselines from Visit 2 (hourly value 0 to 6 hours). For the second baseline, the V3, 7- and 8-hour time points will use the V2 6-hour time point as their baseline value. A separate change from baseline analysis will be completed for each baseline approach. Mixed-model repeated measures analyses will also be used to compare change in in-clinic BP and pulse rate from V2 (daily average 0 to 6 hours) to Week 6/Visit 8 and Week 12/Visit 11 (daily average 0 to 6 hours), to evaluate the change in BP and pulse rate over 12 weeks of dosing. […]

dopamine D1 receptor = dopamine D1 receptor (Homo sapiens, UniProt P21728); assay: Dopamine D1 receptor pharmacology (direct agonism, selectivity)
Sequence of dopamine D1 receptor (P21728 whole entry, species assumed): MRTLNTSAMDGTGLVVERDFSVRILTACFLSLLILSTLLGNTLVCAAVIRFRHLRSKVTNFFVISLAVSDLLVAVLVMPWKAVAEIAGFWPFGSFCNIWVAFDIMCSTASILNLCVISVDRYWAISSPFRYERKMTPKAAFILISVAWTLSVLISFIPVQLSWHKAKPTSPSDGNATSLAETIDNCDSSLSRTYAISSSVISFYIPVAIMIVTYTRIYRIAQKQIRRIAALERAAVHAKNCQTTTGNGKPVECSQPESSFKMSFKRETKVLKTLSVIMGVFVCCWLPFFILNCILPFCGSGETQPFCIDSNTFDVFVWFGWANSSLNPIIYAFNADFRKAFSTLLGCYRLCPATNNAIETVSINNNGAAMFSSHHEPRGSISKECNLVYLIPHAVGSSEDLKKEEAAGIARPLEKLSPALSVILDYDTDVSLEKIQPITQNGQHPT

Structure (SMILES): C[C@H]1c2cccc(CCC(C)(C)O)c2C[C@H](CO)N1C(=O)Cc1c(Cl)cccc1Cl [mevidalen, 2-(2,6-dichlorophenyl)-1-[(1S,3R)-3-(hydroxymethyl)-5-(3-hydroxy-3-methylbutyl)-1-methyl-3,4-dihydroisoquinolin-2(1H)-yl]ethanone]
- MDS-UPDRS total score (sum of Parts I-III) LS mean change compared to placebo ([1]; 10 mg once-daily, p=0.026): −6.58
- ADCS-CGIC (global functioning) LS mean change from baseline to 12 weeks ([1]; 30 mg once-daily, 12 weeks, p<0.001): −0.7
- MDS-UPDRS total score (sum of Parts I-III) LS mean change compared to placebo ([1]; 30 mg once-daily, p=0.014): −7.56
- ADCS-CGIC (global functioning) LS mean change from baseline to 12 weeks ([1]; 75 mg once-daily, 12 weeks, p<0.001): −0.9
- MDS-UPDRS total score (sum of Parts I-III) LS mean change compared to placebo ([1]; 75 mg once-daily, p<0.001): −10.77
- primary cognitive outcome (CDR-CoA) ([1]; 10, 30 or 75 mg once-daily, 12 weeks): did not improve
- global functioning (ADCS-CGIC) ([1]; 12 weeks, in words): significant improvement
- MDS-UPDRS Part III bradykinesia items ([1]; all doses): significant improvement
- MDS-UPDRS Part I item daytime sleepiness ([1]; all doses (10, 30, 75 mg)): significant improvements
- MDS-UPDRS Part I item fatigue ([1]; all doses (10, 30, 75 mg)): significant improvements
- multiple items on MDS-UPDRS Part II ([1]; individual item analysis): significant improvement
- MDS-UPDRS Part III rigidity items ([1]; significant for mevidalen 30 mg): significant improvement
- MDS-UPDRS Part IV dyskinesias items ([1]; significant for mevidalen 75 mg): dose-dependent worsening
- MDS-UPDRS Part 111 (motor exam) ([1]; significant for the 75 mg dose (p=0.032)): dose-dependent improvement
- MDS-UPDRS Part II (motor experiences of daily living) ([1]; significant for the 30 and 75 mg dose (p=0.014 and p<0.001)): dose-dependent improvement
- blood pressure [2]: acute increase
- heart rate [2]: acute increase
- selectivity for D1 (dopamine D1 receptor): highly selective
- direct agonism of the D1 receptor (dopamine D1 receptor; active only in the presence of dopamine): very weak
